Where no end group is shown, it is not given here.
Columns and labels:
[1] = system: anti-spadin antibodies (AB1 polyclonal antibody); assay: AlphaLISA competition assay: biotinylated spadin / anti-spadin antibody displaced by peptides; format: binding, rabbit; settings: for recognition by the anti-spadin antibodies (AB1): AlphaLISA, FIG. 1A-1C; for IC50: competition with 10 nM biotinylated spadin, antibody 1:1000
Protocol: The antibody used was the AB1 antibody, as mentioned above.
When two microbeads (acceptors and donors) were in close proximity, the signal was produced by a molecular interaction between the binding partners on the beads. The propeptide present in the serum sample was able to interfere with this interaction leading to competition. […] After the addition of donor and acceptor beads and an additional incubation for 2 hours at room temperature, the plates were read using an Enspire reader (Perkin). […] The quantity of propeptide was determined from its signal percent inhibition and calculated using the standard curve.

mice = assay: Porsolt Forced Swim Test (FST); format: in vivo, mice (C57BL/6J); settings: for immobility time compared to saline solution: FST, final 4 min of 6 min, p<0.0001 spadin, 12-27 PE, 22-28 PE, p=0.0026 14-25 PE; for Antidepressant activity: Porsolt Forced Swim Test, intravenous injection, mice
Protocol: The experiments were performed on males of 20-25 g C57BL/6J of 8-10 weeks old (January France Elevage) in accordance with the policies on the welfare and use of laboratory animals set out in European Community Directive 2010/63/EU. The local ethics committee (CIEPAL) has approved the protocols used in this study (Protocol Number 00.893.02).
After intravenous injection of saline solution or various tested peptides, the mice (n=10-12 per group) were placed individually in a cylinder (height: 30 cm, diameter: 15 cm) filled with water to a depth of 12 cm (temperature: 22±1° C.) for 6 min. The total immobility time was recorded during the final 4 min (Porsolt et al., 1977).

AB2 polyclonal antibody = assay: Recognition of PE fragments by AB2 polyclonal antibody (FIG. 1A); format: binding, rabbit
Source text: FIG. 1: FIG. 1A is a diagram representing the structure/recognition relationships of the antibodies AB1 and AB2 according to the different fragments. […] FIGS. 1B and 1C represent the relative affinities for spadin, PE and analogs assayed by the detection method.
In particular, antibodies AB1 and AB2 were obtained by injecting into two rabbits, namely Oryctolagus cuniculus, spadin coupled to KLH (Keyhole limpet hemocyanin protein) (AB1) or mini-spadin (22-28 PE) coupled to KLH (AB2) on day 0, DO (1 mg), day 7, D7 (1 mg), day 14, D14 (1 mg) and day 29, D29 (1 mg). Blood samples, namely 20 ml, were taken on day 27 (D27) and day 42 (D42). The polyclonal serum was obtained by centrifuging at 1200×g for 10 min. The polyclonal serum corresponding to the supernatant was recovered. The immune response was checked by ELISA for each antibody. The antibodies contained in the serum were kept at −20° C.

TREK-1 potassium channel = biological target: T1, TREK-1 potassium channel (Mus musculus, UniProt P97438); settings: injected intravenously or intraperitoneally into mice; by inhibiting TREK-1 channel activity; cited from earlier work
T1 construct: host or cells: living mice (endogenous channel)
T1 sequence (P97438 1-426): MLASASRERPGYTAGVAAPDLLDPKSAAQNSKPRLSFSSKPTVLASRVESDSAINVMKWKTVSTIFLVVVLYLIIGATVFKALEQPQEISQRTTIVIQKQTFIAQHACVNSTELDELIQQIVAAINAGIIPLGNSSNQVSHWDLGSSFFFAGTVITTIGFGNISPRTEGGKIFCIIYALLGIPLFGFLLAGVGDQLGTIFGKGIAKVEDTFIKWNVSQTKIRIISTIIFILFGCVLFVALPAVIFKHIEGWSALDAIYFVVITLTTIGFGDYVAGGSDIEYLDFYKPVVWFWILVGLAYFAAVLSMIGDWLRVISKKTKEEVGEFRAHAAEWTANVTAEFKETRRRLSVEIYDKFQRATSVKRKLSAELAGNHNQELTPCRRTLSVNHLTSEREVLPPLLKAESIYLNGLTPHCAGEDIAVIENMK

[2] = Stability of PE in human serum (AlphaLISA); format: in vitro ADME; settings: serum with or without EDTA, room temperature (22° C.), 24 h
Protocol: FIG. 3: FIG. 3 is a histogram representing the stability of PE in the human serum. Serums with or without EDTA (n=7 for each matrix) from healthy blood donors were tested for their stability at room temperature for 24 h. The PE concentration for each incubation period was determined using an AlphaLISA assay method. The average concentrations at the different points in time are expressed as an average ±SEM.
The antidepressant activity of the analogs was tested using the FST. […] (Ordinarily ANOVA, F5.54=20.21, **** p<0.0001 for spadin, 12-27 PE and 22-28 fragments compared to saline mice treated with a saline solution, ** p=0.0026 for 14-25 PE fragment compared to saline mice treated with a saline solution; error bars, average ±SEM). […] A study of the stability of PE in human serum was carried out. FIG. 3 is a histogram representing the stability of PE in human serum. Serums with or without EDTA (n=7 for each matrix) from healthy blood donors were tested for their stability at room temperature (22° C.) for 24 h. The PE concentration for each incubation period was determined using an AlphaLISA assay method. In FIG. 3, the average concentrations at the different time points are expressed as an average ±SEM. […] The unpaired t test for the PE concentration between serum and EDTA-serum indicated no significant difference for each time.

[3] = biological target: polyclonal antibodies (AB1) directed against the peptide of sequence … (Spadin); assay: AlphaLISA competition against biotinylated spadin (differs from Table 2)
[4] = biological target: polyclonal antibodies (AB1) directed against the peptide of sequence … (Spadin); assay: AlphaLISA competition, unlabelled peptide against 10 nM biotinylated spadin on AB1 (1:1000)

Row | Molecule | recognition by the anti-spadin antibodies (AB1) [1] | IC50 [1] [nM] | Antidepressant activity (mice) | IC50 [4] [nM] | other results
1 | C[C@H](N)C(=O)NCC(=O)N[C@H]1CSSC[C@@H](C(=O)O)NC(=O)[C@H](CO)NC(=O)[C@H]([C@@H](C)O)NC(=O)[C@H](Cc2ccccc2)NC(=O)[C@H]([C@@H](C)O)NC(=O)[C@H](CCCCN)NC(=O)[C@H](Cc2c[nH]c3ccccc23)NC(=O)[C@H](Cc2ccccc2)NC(=O)[C@H](Cc2ccccc2)NC(=O)[C@H](CC(N)=O)NC(=O)[C@H](CCCCN)NC1=O [somatostatin-14, reference compound] | not recognized |  |  |  | recognition by the anti-spadin antibodies (AB1) ([1]; listed as somatostatin): incapable of interfering
2 | APLPRWSGPIGVSWGL [12-27 PE, peptide fragment 12 to 27 of the propeptide] | recognized | 1.73 | showed an antidepressant activity and Yes |  | recognition by the anti-spadin antibodies (AB1) ([1]; listed as SEQ ID NO 3): binds; immobility time compared to saline solution (mice): shorter immobility time
3 | APLPRWSGPIGVSWGLR [spadin] | recognized | 2.5 | showed an antidepressant activity |  | recognition by the anti-spadin antibodies (AB1) ([1]; listed as SEQ ID NO 2): binds; immobility time compared to saline solution (mice): shorter immobility time; Antidepressant activity (mice; listed as spadin 12-28 PE): Yes; binding by AB2 polyclonal antibody (AB2 polyclonal antibody): bound; antidepressant (AD) activities (TREK-1 potassium channel): powerful antidepressant (AD) activities
4 | GVSWGLR [22-28 PE, peptide fragment 22 to 28 of the propeptide] | not recognized | > 1000 | Yes |  | recognition by the anti-spadin antibodies (AB1) ([1]; listed as SEQ ID NO 6): sole exception; immobility time compared to saline solution (mice): shorter immobility time; binding by AB2 polyclonal antibody (AB2 polyclonal antibody): bound
5 | LPRWSGPIGVSW [14-25 PE, peptide fragment 14 to 25 of the propeptide] | recognized | 3.44 | showed an antidepressant activity and Yes |  | recognition by the anti-spadin antibodies (AB1) ([1]; listed as SEQ ID NO 4): binds; immobility time compared to saline solution (mice): shorter immobility time
6 | QDRLDAPPPPAAPLPR [1-16 PE, peptide fragment 1 to 16 of the propeptide] | not recognized | > 1000 | No |  | 
7 | QDRLDAPPPPAAPLPRWSGPIGVSWGLRAAAAGGAFPRGGRWRR [PE] |  |  |  |  | stability of PE in human serum [2]: stability of the SLI measurement for 24 hours at room temperature
8 | WSGPI [SEQ ID NO 5] | binds |  |  |  | 
9 | APLPRWSGPIGVSWGL [12-27 PE] |  |  |  | 1.73 | IC50 [3]: 3.44 nM
10 | GVSWGLR [22-28 PE] |  |  |  | > 1000 | 
11 | LPRWSGPIGVSW [14-25 PE] |  |  |  | 3.44 | IC50 [3]: 1.73 nM
12 | QDRLDAPPPPAAPLPRWSGPIGVSWGLRAAAAGGAFPRGGRWRR [Propeptide (PE) 44AA] |  |  |  | 2.18 | 
13 | APLPRWSGPIGVSWGLR [spadin 12-28 PE] |  |  |  | 2.5 | 
14 | QDRLDAPPPPAAPLPR [1-16 PE (pro-spadin)] |  |  |  | > 1000 | 

— US20200190172A1, “METHOD FOR DIAGNOSING/DETERMINING THE EFFECTIVENESS OF TREATMENT FOR DEPRESSION” (Centre National De La Recherche Scientifique, priority 2016, published 2020)
